Reference: PMC10175918 (Communications Biology, 2023)
Like-named read-outs stand apart in the source and are kept apart here.

What was measured:
Test in all cases: TGFα-shedding assay-based GPCR screening with chimeric Gα subunit proteins
Type in all cases: cell-based
348 GPCRs [1] = target: T1, 348 GPCRs (Homo sapiens, UniProt Q9NYW0); settings: 10µM, Favipiravir 100μM
T1 construct: expressed in transfected cells; host or cells: HEK293A
T1 sequence (Q9NYW0 1-307): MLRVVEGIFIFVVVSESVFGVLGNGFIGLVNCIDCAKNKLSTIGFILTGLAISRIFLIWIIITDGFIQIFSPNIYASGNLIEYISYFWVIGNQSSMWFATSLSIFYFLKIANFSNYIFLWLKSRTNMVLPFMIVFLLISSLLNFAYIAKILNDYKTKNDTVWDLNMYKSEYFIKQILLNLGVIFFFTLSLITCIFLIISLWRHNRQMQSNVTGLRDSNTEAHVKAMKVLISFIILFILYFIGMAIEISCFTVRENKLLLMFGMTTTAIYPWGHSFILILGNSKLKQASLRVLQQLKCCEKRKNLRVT

348 GPCRs [2] = target: T2, 348 GPCRs (Homo sapiens, UniProt Q96P69); settings: 10µM, Favipiravir 100μM
T2 construct: expressed in transfected cells; host or cells: HEK293A

348 GPCRs [3] = target: T3, 348 GPCRs (Homo sapiens, UniProt P41968)
T3 construct: expressed in transfected cells; host or cells: HEK293A

348 GPCRs [4] = target: T4, 348 GPCRs (Homo sapiens, UniProt Q6NV75); settings: 10µM, Favipiravir 100μM
T4 construct: expressed in transfected cells; host or cells: HEK293A

348 GPCRs [5] = target: T5, 348 GPCRs (Homo sapiens, UniProt P51679); settings: 10µM, Favipiravir 100μM
T5 construct: expressed in transfected cells; host or cells: HEK293A
T5 sequence (P51679 1-360): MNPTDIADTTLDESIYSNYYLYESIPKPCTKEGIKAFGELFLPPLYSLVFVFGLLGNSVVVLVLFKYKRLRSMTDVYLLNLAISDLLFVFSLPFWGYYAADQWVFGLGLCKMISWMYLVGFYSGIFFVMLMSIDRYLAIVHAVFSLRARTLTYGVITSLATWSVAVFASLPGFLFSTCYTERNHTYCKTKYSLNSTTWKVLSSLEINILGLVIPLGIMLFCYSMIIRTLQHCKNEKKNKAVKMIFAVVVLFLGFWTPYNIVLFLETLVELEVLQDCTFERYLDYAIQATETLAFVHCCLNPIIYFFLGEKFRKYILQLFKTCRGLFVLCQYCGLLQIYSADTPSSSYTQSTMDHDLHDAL

348 GPCRs [6] = target: T6, 348 GPCRs (Homo sapiens, UniProt O00574)
T6 construct: expressed in transfected cells; host or cells: HEK293A

348 GPCRs [7] = target: T7, 348 GPCRs (Homo sapiens, UniProt P51582)
T7 construct: expressed in transfected cells; host or cells: HEK293A

348 GPCRs [8] = target: T8, 348 GPCRs (Homo sapiens, UniProt P35367); settings: 10µM, Favipiravir 100μM
T8 construct: expressed in transfected cells; host or cells: HEK293A

348 GPCRs [9] = target: T9, 348 GPCRs (Homo sapiens, UniProt P18089)
T9 construct: expressed in transfected cells; host or cells: HEK293A
T9 sequence (P18089 1-450): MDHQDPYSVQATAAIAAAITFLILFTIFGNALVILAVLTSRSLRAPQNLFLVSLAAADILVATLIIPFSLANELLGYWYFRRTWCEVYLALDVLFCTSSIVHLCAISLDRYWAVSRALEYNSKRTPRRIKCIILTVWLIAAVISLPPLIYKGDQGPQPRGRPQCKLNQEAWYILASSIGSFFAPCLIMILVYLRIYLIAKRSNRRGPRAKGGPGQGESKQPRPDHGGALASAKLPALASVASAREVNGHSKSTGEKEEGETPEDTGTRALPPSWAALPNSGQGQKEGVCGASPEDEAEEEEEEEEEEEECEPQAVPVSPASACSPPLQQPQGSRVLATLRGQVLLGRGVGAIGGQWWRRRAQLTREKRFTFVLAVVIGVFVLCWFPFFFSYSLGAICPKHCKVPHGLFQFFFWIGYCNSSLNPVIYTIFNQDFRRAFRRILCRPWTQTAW

348 GPCRs [10] = target: 348 GPCRs (Homo sapiens, UniProt P14416); settings: 10µM, Favipiravir 100μM
348 GPCRs [11] = target: 348 GPCRs (Homo sapiens, UniProt P30989); settings: 10µM, Favipiravir 100μM
348 GPCRs [12] = target: T10, 348 GPCRs (Homo sapiens, UniProt P28336); settings: 10µM, Favipiravir 100μM
T10 construct: expressed in transfected cells; host or cells: HEK293A

348 GPCRs [13] = target: T11, 348 GPCRs (Homo sapiens, UniProt Q96LB2); settings: 10µM, Favipiravir 100μM
T11 construct: expressed in transfected cells; host or cells: HEK293A

348 GPCRs [14] = target: T12, 348 GPCRs (Homo sapiens, UniProt P46095)
T12 construct: expressed in transfected cells; host or cells: HEK293A

348 GPCRs [15] = target: T13, 348 GPCRs (Homo sapiens, UniProt Q9Y3P9); settings: 10µM, Favipiravir 100μM
T13 construct: expressed in transfected cells; host or cells: HEK293A

348 GPCRs [16] = target: T14, 348 GPCRs (Homo sapiens, UniProt Q8NFJ5); settings: 10µM, Favipiravir 100μM
T14 construct: expressed in transfected cells; host or cells: HEK293A

[17] = TAS2R10 (taste receptor, type 2, member 10), read-out: % GPCR activation compared to TPA
[18] = GPR78 (G Protein-Coupled Receptor 78), read-out: % GPCR activation compared to TPA
[19] = GPR153 (G protein-coupled receptor 153), read-out: % GPCR activation compared to TPA
[20] = CCR4 (C-C motif chemokine receptor 4), read-out: % GPCR activation compared to TPA
[21] = H1 (histamine receptor H1), read-out: % GPCR activation compared to TPA
[22] = D2 (dopamine receptor D2), read-out: % GPCR activation compared to TPA
[23] = NTSR1(CO) (neurotensin receptor 1), read-out: % GPCR activation compared to TPA
[24] = NMBR (neuromedin B receptor), read-out: % GPCR activation compared to TPA
[25] = MRGPRX1 (MAS-related GPR, member X1), read-out: % GPCR activation compared to TPA
[26] = RABGAP1 (Rab GTPase-activating protein 1), read-out: % GPCR activation compared to TPA
[27] = GPRC5A (G protein-coupled receptor class C group 5 member A), read-out: % GPCR activation compared to TPA

T11 sequence (Q96LB2 whole entry): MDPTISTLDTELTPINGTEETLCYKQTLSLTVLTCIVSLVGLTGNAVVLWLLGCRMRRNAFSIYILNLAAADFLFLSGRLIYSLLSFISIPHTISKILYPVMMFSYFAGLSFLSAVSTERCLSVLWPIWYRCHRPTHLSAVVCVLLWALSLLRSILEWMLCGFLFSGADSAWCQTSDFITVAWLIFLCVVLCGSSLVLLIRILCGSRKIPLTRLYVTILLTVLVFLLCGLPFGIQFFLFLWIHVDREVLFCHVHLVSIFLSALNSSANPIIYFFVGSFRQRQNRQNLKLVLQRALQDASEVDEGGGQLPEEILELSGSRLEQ
T3 sequence (P41968 whole entry): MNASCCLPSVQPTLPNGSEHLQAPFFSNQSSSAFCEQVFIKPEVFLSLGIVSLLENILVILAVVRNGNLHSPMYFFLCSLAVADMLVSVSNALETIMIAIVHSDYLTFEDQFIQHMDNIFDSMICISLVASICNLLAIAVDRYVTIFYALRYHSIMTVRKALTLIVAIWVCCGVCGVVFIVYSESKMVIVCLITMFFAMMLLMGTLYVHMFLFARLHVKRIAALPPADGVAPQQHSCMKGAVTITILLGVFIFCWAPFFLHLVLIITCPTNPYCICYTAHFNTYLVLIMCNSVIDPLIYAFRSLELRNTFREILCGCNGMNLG
348 GPCRs (Homo sapiens, UniProt P14416), sequence (P14416 whole entry): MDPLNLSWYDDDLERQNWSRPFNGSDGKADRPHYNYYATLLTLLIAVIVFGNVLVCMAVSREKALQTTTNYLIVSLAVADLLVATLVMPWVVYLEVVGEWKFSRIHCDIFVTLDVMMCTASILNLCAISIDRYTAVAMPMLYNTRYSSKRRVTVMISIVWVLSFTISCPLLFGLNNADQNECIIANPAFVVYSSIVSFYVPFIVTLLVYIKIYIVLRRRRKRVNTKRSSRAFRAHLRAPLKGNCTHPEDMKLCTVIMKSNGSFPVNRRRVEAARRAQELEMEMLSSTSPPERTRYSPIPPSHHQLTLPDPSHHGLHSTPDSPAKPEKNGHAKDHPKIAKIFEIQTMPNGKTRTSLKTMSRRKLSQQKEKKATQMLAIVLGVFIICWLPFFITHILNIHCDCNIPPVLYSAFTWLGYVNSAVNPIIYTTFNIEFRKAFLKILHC
T4 sequence (Q6NV75 whole entry): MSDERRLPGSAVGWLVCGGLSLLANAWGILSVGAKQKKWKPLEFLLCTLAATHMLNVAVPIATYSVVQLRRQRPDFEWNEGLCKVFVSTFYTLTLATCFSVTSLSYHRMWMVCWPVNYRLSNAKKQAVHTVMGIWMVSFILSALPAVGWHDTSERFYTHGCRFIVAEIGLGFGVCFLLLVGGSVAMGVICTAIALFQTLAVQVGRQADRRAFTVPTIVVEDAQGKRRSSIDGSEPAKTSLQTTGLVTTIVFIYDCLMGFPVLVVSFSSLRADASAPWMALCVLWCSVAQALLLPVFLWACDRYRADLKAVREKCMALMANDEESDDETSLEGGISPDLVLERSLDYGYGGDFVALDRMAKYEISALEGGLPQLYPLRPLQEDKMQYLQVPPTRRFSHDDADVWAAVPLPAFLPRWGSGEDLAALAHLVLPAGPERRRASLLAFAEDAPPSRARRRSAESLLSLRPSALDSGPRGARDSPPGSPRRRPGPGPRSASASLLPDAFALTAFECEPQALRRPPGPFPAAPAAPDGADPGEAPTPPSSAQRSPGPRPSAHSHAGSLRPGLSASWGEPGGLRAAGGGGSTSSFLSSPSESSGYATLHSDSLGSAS
T2 sequence (Q96P69 whole entry): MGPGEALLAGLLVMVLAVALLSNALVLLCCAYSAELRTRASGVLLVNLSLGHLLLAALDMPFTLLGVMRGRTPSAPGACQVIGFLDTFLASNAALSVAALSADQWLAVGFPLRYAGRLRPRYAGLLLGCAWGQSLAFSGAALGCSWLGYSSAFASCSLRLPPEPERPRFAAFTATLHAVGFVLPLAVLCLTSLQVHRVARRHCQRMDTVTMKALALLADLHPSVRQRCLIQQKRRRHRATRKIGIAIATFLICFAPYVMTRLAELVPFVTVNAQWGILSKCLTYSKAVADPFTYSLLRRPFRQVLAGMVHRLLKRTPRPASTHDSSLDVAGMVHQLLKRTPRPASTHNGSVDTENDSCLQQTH
T6 sequence (O00574 whole entry): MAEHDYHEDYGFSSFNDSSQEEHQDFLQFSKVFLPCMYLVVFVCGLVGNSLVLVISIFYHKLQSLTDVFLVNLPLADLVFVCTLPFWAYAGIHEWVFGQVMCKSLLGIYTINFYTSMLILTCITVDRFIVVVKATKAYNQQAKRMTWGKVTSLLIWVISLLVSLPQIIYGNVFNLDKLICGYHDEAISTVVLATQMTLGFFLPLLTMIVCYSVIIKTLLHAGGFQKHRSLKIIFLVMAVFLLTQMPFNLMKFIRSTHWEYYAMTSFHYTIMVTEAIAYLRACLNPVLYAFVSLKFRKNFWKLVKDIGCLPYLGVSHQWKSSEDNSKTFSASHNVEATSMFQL
T8 sequence (P35367 whole entry): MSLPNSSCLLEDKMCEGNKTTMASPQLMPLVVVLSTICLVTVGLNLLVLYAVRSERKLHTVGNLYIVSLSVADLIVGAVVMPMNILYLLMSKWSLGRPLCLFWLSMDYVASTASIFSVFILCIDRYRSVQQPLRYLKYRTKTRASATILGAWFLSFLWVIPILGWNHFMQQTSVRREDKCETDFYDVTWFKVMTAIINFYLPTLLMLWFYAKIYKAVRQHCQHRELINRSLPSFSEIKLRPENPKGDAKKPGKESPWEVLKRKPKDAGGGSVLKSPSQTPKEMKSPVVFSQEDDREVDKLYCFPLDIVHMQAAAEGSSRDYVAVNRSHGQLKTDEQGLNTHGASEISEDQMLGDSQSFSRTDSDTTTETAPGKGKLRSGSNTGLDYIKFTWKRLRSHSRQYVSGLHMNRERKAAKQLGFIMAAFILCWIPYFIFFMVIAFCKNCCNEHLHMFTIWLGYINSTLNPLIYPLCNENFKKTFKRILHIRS
T7 sequence (P51582 whole entry): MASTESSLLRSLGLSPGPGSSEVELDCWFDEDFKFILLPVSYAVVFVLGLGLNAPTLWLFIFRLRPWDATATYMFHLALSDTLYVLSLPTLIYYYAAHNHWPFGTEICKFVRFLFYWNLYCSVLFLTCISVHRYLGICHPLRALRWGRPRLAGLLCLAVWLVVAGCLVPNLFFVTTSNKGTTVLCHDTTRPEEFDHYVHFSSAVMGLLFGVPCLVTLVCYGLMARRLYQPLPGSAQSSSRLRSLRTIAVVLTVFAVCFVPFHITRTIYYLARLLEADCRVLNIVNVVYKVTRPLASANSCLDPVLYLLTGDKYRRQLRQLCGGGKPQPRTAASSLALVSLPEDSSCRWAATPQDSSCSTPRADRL
T12 sequence (P46095 whole entry): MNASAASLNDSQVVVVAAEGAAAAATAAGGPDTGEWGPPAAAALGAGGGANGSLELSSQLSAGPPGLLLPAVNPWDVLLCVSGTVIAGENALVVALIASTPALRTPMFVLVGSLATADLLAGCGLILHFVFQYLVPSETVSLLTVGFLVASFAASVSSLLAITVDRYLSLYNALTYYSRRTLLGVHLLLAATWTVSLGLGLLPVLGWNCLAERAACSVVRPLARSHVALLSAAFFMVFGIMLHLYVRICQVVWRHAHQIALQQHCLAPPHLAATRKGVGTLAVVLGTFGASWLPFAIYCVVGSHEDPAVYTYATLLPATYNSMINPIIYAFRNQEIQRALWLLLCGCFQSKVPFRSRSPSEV
348 GPCRs (Homo sapiens, UniProt P30989), sequence (P30989 whole entry): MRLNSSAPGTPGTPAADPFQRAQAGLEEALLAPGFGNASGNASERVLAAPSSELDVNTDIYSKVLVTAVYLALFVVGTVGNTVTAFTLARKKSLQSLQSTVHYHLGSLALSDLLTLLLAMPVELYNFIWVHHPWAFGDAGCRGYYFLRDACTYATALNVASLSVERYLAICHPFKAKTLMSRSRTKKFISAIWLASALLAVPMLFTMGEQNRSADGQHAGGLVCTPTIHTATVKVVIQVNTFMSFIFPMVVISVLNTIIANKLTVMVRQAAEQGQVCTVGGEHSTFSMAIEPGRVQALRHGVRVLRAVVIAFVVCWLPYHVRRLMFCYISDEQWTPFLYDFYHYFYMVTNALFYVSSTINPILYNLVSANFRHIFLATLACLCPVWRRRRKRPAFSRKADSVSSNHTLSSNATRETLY
T14 sequence (Q8NFJ5 whole entry): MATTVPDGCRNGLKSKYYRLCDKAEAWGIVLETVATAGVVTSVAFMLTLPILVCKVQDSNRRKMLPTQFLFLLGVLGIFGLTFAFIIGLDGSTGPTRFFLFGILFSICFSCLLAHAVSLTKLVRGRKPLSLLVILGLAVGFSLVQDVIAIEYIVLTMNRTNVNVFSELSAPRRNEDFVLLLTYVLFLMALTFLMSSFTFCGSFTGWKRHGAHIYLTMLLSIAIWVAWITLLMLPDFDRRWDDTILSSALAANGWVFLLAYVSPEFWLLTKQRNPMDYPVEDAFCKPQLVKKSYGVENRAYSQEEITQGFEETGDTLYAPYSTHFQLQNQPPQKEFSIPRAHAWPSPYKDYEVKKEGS
T10 sequence (P28336 whole entry): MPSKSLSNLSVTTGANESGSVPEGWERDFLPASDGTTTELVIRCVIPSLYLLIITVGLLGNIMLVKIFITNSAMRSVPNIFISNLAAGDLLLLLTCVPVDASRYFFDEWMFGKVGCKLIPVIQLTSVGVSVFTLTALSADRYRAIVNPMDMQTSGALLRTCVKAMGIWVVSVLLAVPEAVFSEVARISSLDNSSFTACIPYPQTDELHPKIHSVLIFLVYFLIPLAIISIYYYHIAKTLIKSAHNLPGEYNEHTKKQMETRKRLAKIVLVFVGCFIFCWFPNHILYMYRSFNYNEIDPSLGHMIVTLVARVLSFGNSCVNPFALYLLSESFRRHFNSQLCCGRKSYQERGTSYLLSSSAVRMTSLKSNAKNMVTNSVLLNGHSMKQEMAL

Compound: CC(C)OC(=O)[C@H](C)N[P@](=O)(OC[C@H]1O[C@@H](n2ccc(=O)[nH]c2=O)[C@](C)(F)[C@@H]1O)Oc1ccccc1 [sofosbuvir]
- activation at 100 µM (348 GPCRs [1]; read-out: % GPCR activation compared to TPA, TAS2R10 (taste receptor, type 2, member 10)): -0.149%
- activation at 100 µM (348 GPCRs [2]; read-out: % GPCR activation compared to TPA, GPR78 (G Protein-Coupled Receptor 78)): 2.01%
- activation at 10 µM (348 GPCRs [3]; read-out: % GPCR activation compared to TPA, GPCR MC3R (melanocortin 3 receptor)): -3.13%
- activation at 10 µM (348 GPCRs [4]; read-out: % GPCR activation compared to TPA, GPR153 (G protein-coupled receptor 153)): -14.2%
- activation at 100 µM (348 GPCRs [5]; read-out: % GPCR activation compared to TPA, CCR4 (C-C motif chemokine receptor 4)): -2.38%
- activation at 10 µM (348 GPCRs [6]; read-out: % GPCR activation compared to TPA, GPCR CXCR6 (C-X-C motif chemokine receptor 6)): -0.824%
- activation at 10 µM (348 GPCRs [7]; read-out: % GPCR activation compared to TPA, GPCR P2Y4 (pyrimidinergic receptor P2Y, G-protein coupled, 4)): -14.4%
- activation at 10 µM (348 GPCRs [8]; read-out: % GPCR activation compared to TPA, H1 (histamine receptor H1)): -0.312%
- activation at 10 µM (348 GPCRs [9]; read-out: % GPCR activation compared to TPA, GPCR α2B (adrenoceptor alpha 2B)): 0.619%
- activation at 100 µM (348 GPCRs [10]; read-out: % GPCR activation compared to TPA, D2 (dopamine receptor D2)): -0.334%
- activation at 100 µM (348 GPCRs [11]; read-out: % GPCR activation compared to TPA, NTSR1(CO) (neurotensin receptor 1)): -8.04%
- activation at 10 µM (348 GPCRs [12]; read-out: % GPCR activation compared to TPA, NMBR (neuromedin B receptor)): -0.697%
- activation at 100 µM (348 GPCRs [13]; read-out: % GPCR activation compared to TPA, MRGPRX1 (MAS-related GPR, member X1)): -1.41%
- activation at 10 µM (348 GPCRs [14]; read-out: % GPCR activation compared to TPA, GPCR GPR6 (G protein-coupled receptor 6)): -0.69%
- activation at 100 µM (348 GPCRs [15]; read-out: % GPCR activation compared to TPA, RABGAP1 (Rab GTPase-activating protein 1)): -1.28%
- activation at 100 µM (348 GPCRs [16]; read-out: % GPCR activation compared to TPA, GPRC5A (G protein-coupled receptor class C group 5 member A)): -9.13%

Compound: NC(=O)c1nc(F)cnc1O [favipiravir, 6-fluoro-3-hydroxy-2-pyrazinecarboxamide]
- activation at 100 µM (348 GPCRs [1]; [17]): 1.23%
- activation at 100 µM (348 GPCRs [2]; [18]): -0.429%
- activation at 100 µM (348 GPCRs [3]; GPCR MC3R (melanocortin 3 receptor), 100μM, read-out: % GPCR activation compared to TPA): 0.3%
- activation at 10 µM (348 GPCRs [4]; [19]): 0.731%
- activation at 100 µM (348 GPCRs [5]; [20]): 0.85%
- activation at 100 µM (348 GPCRs [6]; GPCR CXCR6 (C-X-C motif chemokine receptor 6), 100μM, read-out: % GPCR activation compared to TPA): -1.02%
- activation at 100 µM (348 GPCRs [7]; GPCR P2Y4 (pyrimidinergic receptor P2Y, G-protein coupled, 4), 100μM, read-out: % GPCR activation compared to TPA): -6.06%
- activation at 10 µM (348 GPCRs [8]; [21]): 0.654%
- activation at 100 µM (348 GPCRs [9]; GPCR α2B (adrenoceptor alpha 2B), 100μM, read-out: % GPCR activation compared to TPA): -4.03%
- activation at 100 µM (348 GPCRs [10]; [22]): 4.37%
- activation at 100 µM (348 GPCRs [11]; [23]): -1.75%
- activation at 10 µM (348 GPCRs [12]; [24]): -0.624%
- activation at 100 µM (348 GPCRs [13]; [25]): -1.16%
- activation at 100 µM (348 GPCRs [14]; GPCR GPR6 (G protein-coupled receptor 6), 100μM, read-out: % GPCR activation compared to TPA): 1.83%
- activation at 100 µM (348 GPCRs [15]; [26]): -1.48%
- activation at 100 µM (348 GPCRs [16]; [27]): 8.99%

Compound: CC(C)C(=O)OC[C@H]1O[C@@H](n2ccc(NO)nc2=O)[C@H](O)[C@@H]1O [molnupiravir]
- activation at 100 µM (348 GPCRs [1]; [17]): -0.25%
- activation at 100 µM (348 GPCRs [2]; [18]): -0.581%
- activation at 10 µM (348 GPCRs [3]; GPCR MC3R (melanocortin 3 receptor), read-out: % GPCR activation compared to TPA): -4.7%
- activation at 10 µM (348 GPCRs [4]; [19]): -23.6%
- activation at 100 µM (348 GPCRs [5]; [20]): 1.67%
- activation at 10 µM (348 GPCRs [6]; GPCR CXCR6 (C-X-C motif chemokine receptor 6), read-out: % GPCR activation compared to TPA): 0.979%
- activation at 10 µM (348 GPCRs [7]; GPCR P2Y4 (pyrimidinergic receptor P2Y, G-protein coupled, 4), read-out: % GPCR activation compared to TPA): -12.8%
- activation at 10 µM (348 GPCRs [8]; [21]): -2.24%
- activation at 10 µM (348 GPCRs [9]; GPCR α2B (adrenoceptor alpha 2B), read-out: % GPCR activation compared to TPA): -2.53%
- activation at 100 µM (348 GPCRs [10]; [22]): -0.0472%
- activation at 100 µM (348 GPCRs [11]; [23]): -6.1%
- activation at 10 µM (348 GPCRs [12]; [24]): 0.279%
- activation at 100 µM (348 GPCRs [13]; [25]): -2.42%
- activation at 10 µM (348 GPCRs [14]; GPCR GPR6 (G protein-coupled receptor 6), read-out: % GPCR activation compared to TPA): -0.366%
- activation at 100 µM (348 GPCRs [15]; [26]): -0.481%
- activation at 100 µM (348 GPCRs [16]; [27]): -5.54%
